Like-named read-outs stand apart in the source and are kept apart here.
How the values were obtained:
[1] = biological target: WT-SQR (SDHC), IPO323 mitochondria (Zymoseptoria tritici, UniProt F9X9V6+F9XH52+O42772); assay: Succinate-quinone (SQR) SDHI sensitivity assay on purified mitochondria, IPO323; type: biochemical
How it was run: (§1)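 Mitochondria purified from each strain were used for succinate:ubiquinone/DCPIP reductase assays, with suspensions adjusted to similar initial velocity (1 OD595nm hour^-1). Inhibitor was tested at 0.047 nM–50 μM in 4x steps (11 concentrations plus DMSO). IC50 came from non-linear fits of absorbance slopes (OD/min) against log concentration.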

[2] = biological target: SQR of 06STD024 (SDHC / altC) mitochondria (Zymoseptoria tritici, UniProt A0A1X7RQW2+F9X9V6+F9XH52+O42772); assay: Succinate-quinone (SQR) SDHI sensitivity assay on purified mitochondria, 06STD024; type: biochemical
How it was run: (§2)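 Succinate:ubiquinone/DCPIP reductase inhibition measured on purified mitochondria from Zymoseptoria tritici strains carrying either a single C-subunit gene (ZtSDHC1, ZtSDHC1_A84I or ZtSDHC3) or both ZtSDHC1 and ZtSDHC3; pTet::SDHC3 transformant tested under repressed and induced conditions.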

[3] = biological target: SQR (SDHC) of D024 SDHC3 KO mitochondria (Zymoseptoria tritici, UniProt F9X9V6+F9XH52+O42772); assay: Succinate-quinone (SQR) SDHI sensitivity assay on purified mitochondria, 06STD024 SDHC3 KO; type: biochemical
Sequence of SQR (SDHC) of D024 SDHC3 KO mitochondria (F9XH52 44-187): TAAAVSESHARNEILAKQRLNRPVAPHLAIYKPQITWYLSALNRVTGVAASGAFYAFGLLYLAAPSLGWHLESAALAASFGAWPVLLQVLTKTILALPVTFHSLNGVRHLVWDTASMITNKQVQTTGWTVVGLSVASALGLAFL
Sequence of SQR (SDHC) of D024 SDHC3 KO mitochondria (O42772 19-297): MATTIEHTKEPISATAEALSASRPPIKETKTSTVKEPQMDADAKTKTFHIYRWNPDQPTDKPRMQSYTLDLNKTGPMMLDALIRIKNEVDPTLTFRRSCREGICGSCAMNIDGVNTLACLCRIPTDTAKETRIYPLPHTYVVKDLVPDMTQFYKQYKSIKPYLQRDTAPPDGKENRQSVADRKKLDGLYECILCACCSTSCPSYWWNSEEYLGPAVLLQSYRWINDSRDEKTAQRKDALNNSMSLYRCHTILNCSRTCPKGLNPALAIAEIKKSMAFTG
Sequence of SQR (SDHC) of D024 SDHC3 KO mitochondria (F9X9V6 1-193): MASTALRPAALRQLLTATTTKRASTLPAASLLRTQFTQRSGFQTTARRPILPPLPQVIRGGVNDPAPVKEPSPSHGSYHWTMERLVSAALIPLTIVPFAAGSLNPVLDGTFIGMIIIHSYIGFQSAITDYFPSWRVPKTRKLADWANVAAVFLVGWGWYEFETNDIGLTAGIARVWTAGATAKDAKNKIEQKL
Sequence of SQR (SDHC) of D024 SDHC3 KO mitochondria (F9WWR1 29-643 partner): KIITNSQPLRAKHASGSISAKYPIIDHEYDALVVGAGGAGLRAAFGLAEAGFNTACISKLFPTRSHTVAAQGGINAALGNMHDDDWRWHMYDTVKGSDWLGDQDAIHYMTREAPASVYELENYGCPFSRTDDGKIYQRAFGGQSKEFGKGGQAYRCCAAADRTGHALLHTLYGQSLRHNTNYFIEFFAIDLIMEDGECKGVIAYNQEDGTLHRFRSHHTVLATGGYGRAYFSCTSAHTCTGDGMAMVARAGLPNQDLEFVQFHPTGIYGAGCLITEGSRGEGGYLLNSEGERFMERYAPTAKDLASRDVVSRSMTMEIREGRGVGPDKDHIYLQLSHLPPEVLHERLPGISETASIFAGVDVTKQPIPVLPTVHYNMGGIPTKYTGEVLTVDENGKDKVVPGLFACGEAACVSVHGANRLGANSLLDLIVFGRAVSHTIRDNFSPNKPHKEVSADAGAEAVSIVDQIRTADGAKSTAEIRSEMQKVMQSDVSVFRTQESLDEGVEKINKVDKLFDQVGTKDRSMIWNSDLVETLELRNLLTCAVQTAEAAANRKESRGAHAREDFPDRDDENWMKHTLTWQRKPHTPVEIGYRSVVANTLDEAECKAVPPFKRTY
How it was run: as §1

[4] = biological target: altC-SQR (altC) of D024 SDHC1 KO mitochondria (Zymoseptoria tritici, UniProt A0A1X7RQW2+F9X9V6+O42772); assay: Succinate-quinone (SQR) SDHI sensitivity assay on purified mitochondria, 06STD024 SDHC1 KO; type: biochemical; settings: for RF (resistance factor), D024 SDHC1 KO (altC): IC50 ratio compared to IPO323 values
Sequence of altC-SQR (altC) of D024 SDHC1 KO mitochondria (A0A1X7RQW2 36-181): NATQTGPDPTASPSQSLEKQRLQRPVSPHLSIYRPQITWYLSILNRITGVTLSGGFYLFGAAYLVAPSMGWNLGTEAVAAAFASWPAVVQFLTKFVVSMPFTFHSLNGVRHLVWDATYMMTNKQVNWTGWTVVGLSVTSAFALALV
Sequence of altC-SQR (altC) of D024 SDHC1 KO mitochondria (O42772 20-297): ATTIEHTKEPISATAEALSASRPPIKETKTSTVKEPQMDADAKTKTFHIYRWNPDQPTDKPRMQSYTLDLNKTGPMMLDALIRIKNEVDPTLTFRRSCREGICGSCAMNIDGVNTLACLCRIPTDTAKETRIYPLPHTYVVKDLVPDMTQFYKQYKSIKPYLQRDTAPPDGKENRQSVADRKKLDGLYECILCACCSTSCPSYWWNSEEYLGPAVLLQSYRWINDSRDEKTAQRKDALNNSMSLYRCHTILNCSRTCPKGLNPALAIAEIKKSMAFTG
Sequence of altC-SQR (altC) of D024 SDHC1 KO mitochondria (F9X9V6 1-193): as the sequence (F9X9V6 1-193) above
Sequence of altC-SQR (altC) of D024 SDHC1 KO mitochondria (F9WWR1 41-643 partner): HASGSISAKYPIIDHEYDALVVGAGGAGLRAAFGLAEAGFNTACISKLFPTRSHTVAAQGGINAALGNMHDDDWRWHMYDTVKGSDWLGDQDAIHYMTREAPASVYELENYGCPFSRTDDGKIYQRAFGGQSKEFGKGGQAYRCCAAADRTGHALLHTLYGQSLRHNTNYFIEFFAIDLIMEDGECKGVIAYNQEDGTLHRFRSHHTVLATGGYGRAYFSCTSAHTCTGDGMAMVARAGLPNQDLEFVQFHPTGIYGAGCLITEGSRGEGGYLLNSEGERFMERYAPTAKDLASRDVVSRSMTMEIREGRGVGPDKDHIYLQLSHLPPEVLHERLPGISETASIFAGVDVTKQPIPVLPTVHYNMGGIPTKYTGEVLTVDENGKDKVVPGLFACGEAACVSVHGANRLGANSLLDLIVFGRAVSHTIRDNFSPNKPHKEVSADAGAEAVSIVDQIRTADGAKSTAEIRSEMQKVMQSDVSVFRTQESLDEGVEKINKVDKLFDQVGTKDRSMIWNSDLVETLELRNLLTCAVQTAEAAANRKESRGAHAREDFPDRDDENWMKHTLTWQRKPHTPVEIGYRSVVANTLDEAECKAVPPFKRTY
How it was run: as §2

[5] = biological target: SQR (SDHC / altC) of IPO323 pTet::SDHC3 transformant, repressed (Zymoseptoria tritici, UniProt A0A1X7RQW2+F9X9V6+F9XH52+O42772); assay: Succinate-quinone (SQR) SDHI sensitivity assay on purified mitochondria, IPO323 pTet::SDHC3 repressed; type: biochemical
Sequence of SQR (SDHC / altC) of IPO323 pTet::SDHC3 transformant, repressed (F9XH52 44-187): as the sequence (F9XH52 44-187) above
Sequence of SQR (SDHC / altC) of IPO323 pTet::SDHC3 transformant, repressed (O42772 20-297): as the sequence (O42772 20-297) above
Sequence of SQR (SDHC / altC) of IPO323 pTet::SDHC3 transformant, repressed (F9X9V6 1-193): as the sequence (F9X9V6 1-193) above
Sequence of SQR (SDHC / altC) of IPO323 pTet::SDHC3 transformant, repressed (A0A1X7RQW2 36-181): as the sequence (A0A1X7RQW2 36-181) above
Sequence of SQR (SDHC / altC) of IPO323 pTet::SDHC3 transformant, repressed (F9WWR1 41-643 partner): as the sequence (F9WWR1 41-643 partner) above
How it was run: as §2

[6] = system: Zymoseptoria tritici field and genetically modified strains; assay: Liquid culture assay for fungicide sensitivity determination; type: cell-based; settings: Zymoseptoria tritici
How it was run: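 EC50s from liquid culture growth tests with field isolates and modified strains. Population monitoring used final concentrations 100 to 0.0001 mg.L^-1 in 10x steps (7 levels plus DMSO control); refined panel profiling used 0.5 mM to 0.47 nM in 4x steps (11 levels plus DMSO).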

[7] = system: Zymoseptoria tritici isolates; assay: Growth tests on solid agar at discriminatory fungicide concentrations; type: cell-based; settings: AE agar, fluopyram 5 mg.L^-1, 18 DPI (procedure of Fig 6)
Description: Fig 6 Resistance to SHA-SDHIs in Z. tritici EU populations. […] Sensitivity data are sorted by genotype according to the presence of the ZtSDHC3 gene. ** p value of 0.0029 in Welch’s corrected unpaired t-test. (B) Solid agar growth of a collection of 93 Z. tritici isolates sampled in 2009 (same set as above). Individual strains from this collection are boxed and numbered 1 to 93. Boxes A and B correspond to reference resistant strains 06STD024 and 07STGB009 respectively. Box C corresponds to IPO323 reference sensitive isolate. The yellow framed boxes correspond to strains carrying the ZtSDHC3 gene. Yellow arrow designates strain 09STIR20.1 (number 78) carrying a non-functional alt-SDHC (frameshift, S6 Table).
A large scale spotting assay of 96 isolates (Fig 6) was performed using the V&P 96 floating pin tool VP408FP6 (V&P Scientific), equipped with flat tip FP6 pins of 1.58 mm diameter (resulting in approx. 0.4 μl transfer volume). Source cultures for cell spotting were grown in 100 μl YPD liquid medium in a 96 well flat bottom plate (Corning, 3370) at 18°C for 11 days (average cell density of 3.5·10^6/ml), then diluted 1:2x in fresh YPD medium and incubated for another 1.5 h before transfer with the pin tool (approx. 700 cells per spot) onto AE agar with or without fungicide. Plates were incubated at 20°C in the dark for up to 18 days. Smaller scale spotting assays (Figs 4 and 8) were performed using 5 days V8-agar plates inoculums adjusted to 2.10^6 spores.mL^-1 in water and diluted in steps of 3. 2μL of spore suspension was spotted on the plates, and the plates were incubated shielded from light at 21°C for 6 days.

[8] = IC50 ratio compared to IPO323 values

SMILES: O=C(NCCc1ncc(C(F)(F)F)cc1Cl)c1ccccc1C(F)(F)F [Fluopyram]
- IC50 [1]: 12.5 ± 2 nM
- RF (resistance factor), 06STD024 (SDHC / altC) [2, 8]: 111.3
- IC50 ([2]; mitochondria of field isolate 06STD024, mean of three ± SD): 1390 ± 522 nM
- RF (resistance factor), D024 SDHC3 KO (SDHC) [3, 8]: 0.8
- IC50 ([3]; mitochondria of 06STD024 ZtSDHC3 deletion mutant, mean of three ± SD): 10.1 ± 2 nM
- RF (resistance factor), D024 SDHC1 KO (altC) [4]: 93.4
- RF (resistance factor), D024 SDHC1 KO (altC) ([4]; listed as fluopyram): ~100
- IC50 ([4]; mitochondria of 06STD024 ZtSDHC1 deletion mutant (pure altC-SQR), mean of three ± SD): 1160 ± 201 nM
- RF (resistance factor), pTet Repressed (SDHC / altC) [5, 8]: 1.8
- IC50 ([5]; IPO323 pTet::SDHC3 transformant grown in presence of 30 mg.L^-1 doxycycline, mean of three ± SD): 21.9 ± 7.7 nM
- EC50 ([6]; read-out: EC50 (nM) Mean, strain 06STD024, liquid culture sensitivity): 9360 nM
- EC50 ([6]; read-out: EC50 (nM) Mean, strain 07STGB009, liquid culture sensitivity): 10900 nM
- EC50 ([6]; read-out: EC50 (nM) Mean, strain 09STD041, liquid culture sensitivity): 1370 nM
- EC50 ([6]; read-out: EC50 (nM) Mean, strain 09STD053, liquid culture sensitivity): 558 nM
- EC50 ([6]; read-out: EC50 (nM) Mean, strain 09STF011, liquid culture sensitivity): 3570 nM
- EC50 ([6]; read-out: EC50 (nM) Mean, strain 09STF037, liquid culture sensitivity): 461 nM
- EC50 ([6]; read-out: EC50 (nM) Mean, strain 09STF112, liquid culture sensitivity): 2890 nM
- EC50 ([6]; read-out: EC50 (nM) Mean, strain 09STIR20.3, liquid culture sensitivity): 419 nM
- EC50 ([6]; read-out: EC50 (nM) Mean, strain Flu21 (SDHC1_A84I), liquid culture sensitivity): 4580 nM
- EC50 ([6]; read-out: EC50 (nM) Mean, strain IPO323, liquid culture sensitivity): 222 nM
- EC50 ([6]; read-out: EC50 (nM) Mean, strain IPO94269, liquid culture sensitivity): 147 nM
- EC50 ([6]; read-out: EC50 (nM) Mean, strain KO_SDHC1_T1, liquid culture sensitivity): 25600 nM
- EC50 ([6]; read-out: EC50 (nM) Mean, strain KO_SDHC1_T3, liquid culture sensitivity): 21200 nM
- EC50 ([6]; read-out: EC50 (nM) Mean, strain KO_SDHC3_T4, liquid culture sensitivity): 350 nM
- EC50 ([6]; read-out: EC50 (nM) Mean, strain KO_SDHC3_T13, liquid culture sensitivity): 351 nM
- EC50 ([6]; read-out: EC50 (nM) Mean, strain pTet::SDHC3_I78A_T1, liquid culture sensitivity): 354 nM
- EC50 ([6]; read-out: EC50 (nM) Mean, strain pTet::SDHC3_I78A_T5, liquid culture sensitivity): 818 nM
- EC50 ([6]; read-out: EC50 (nM) Mean, strain pTet::SDHC3_I78A_T15, liquid culture sensitivity): 552 nM
- EC50 ([6]; read-out: EC50 (nM) Mean, strain pTet::SDHC3_I78A_T35, liquid culture sensitivity): 143 nM
- EC50 ([6]; read-out: EC50 (nM) Mean, strain pTet::SDHC3_T1, liquid culture sensitivity): 16000 nM
- EC50 ([6]; read-out: EC50 (nM) Mean, strain pTet::SDHC3_T2, liquid culture sensitivity): 14300 nM
- EC50 ([6]; read-out: EC50 (nM) Mean, strain pTet::SDHC3_T3, liquid culture sensitivity): 6750 nM
- EC50 ([6]; read-out: EC50 (nM) Mean, strain pTet::SDHC3_T7, liquid culture sensitivity): 24500 nM
- EC50 ([6]; read-out: Fluopyram EC50 in liquid culture, panel of ZtSDHC3 containing isolates, field isolates collected in 2009 carrying ZtSDHC3, from sensitive to resistant): 0.3 to 3.2 µg/mL
- Growth phenotype on SDHI-amended plate ([7]; strain 06STD024): Very strong
- Growth phenotype on SDHI-amended plate ([7]; strain 07STGB009): Very strong
- Growth phenotype on SDHI-amended plate ([7]; strain 09STD041): Weak
- Growth phenotype on SDHI-amended plate ([7]; strain 09STD053): Weak
- Growth phenotype on SDHI-amended plate ([7]; strain 09STF011): Moderate
- Growth phenotype on SDHI-amended plate ([7]; strain 09STF037): Very weak
- Growth phenotype on SDHI-amended plate ([7]; strain 09STF112): Strong
- Growth phenotype on SDHI-amended plate ([7]; strain 09STIR20.3): Very weak
- Growth phenotype on SDHI-amended plate ([7]; strain IPO323): No
- Growth phenotype on SDHI-amended plate ([7]; strain IPO94269): No

— PMC6941823, “A dispensable paralog of succinate dehydrogenase subunit C mediates standing resistance towards a subclass of SDHI fungicides in Zymoseptoria tritici” (PLoS Pathogens, 2019)
